IC50 data for 19 molecules are collected here from PubChem BioAssay AID602206 (Sanford-Burnham Center for Chemical Genomics, 2012).

The source made the active and inactive calls. No rule for the calls is given here.

As a reminder, the IC50 is the midpoint of a concentration-inhibition curve.

The assay has as its target Bcl-2-related protein A1 (Mus musculus) (UniProt Q07440). Nature of the assay: Bfl-1 binding inhibition by analogs, SAR follow-up, counter-screen for UBC13 polyubiquitination inhibitor project, biochemical, mouse Bfl-1, set 3 (AID 602206). As to conditions: Bfl-1 / peptide binding counterscreen, TR-FRET.

Bcl-2-related protein A1 (Mus musculus), sequence (Q07440 whole entry, looked up): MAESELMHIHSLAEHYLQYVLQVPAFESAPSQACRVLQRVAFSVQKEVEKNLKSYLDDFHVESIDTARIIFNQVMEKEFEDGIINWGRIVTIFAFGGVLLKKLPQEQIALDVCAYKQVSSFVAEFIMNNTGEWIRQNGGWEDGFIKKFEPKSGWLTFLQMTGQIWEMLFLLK

Regarding `COc1cc(OC)c(NC(=O)C2CCN(c3ncnc4c3nc3n4CCCCC3)CC2)cc1Cl`, the IC50 is > 100 µM (inactive).

On to `Cc1ccc(NC(=O)C2CCN(c3ncnc4c3nc3n4CCCCC3)CC2)c(Cl)c1`, for which the IC50 is > 100 µM (inactive).

With `COc1ccc(NC(=O)C2CCN(c3ncnc4c3nc3n4CCCCC3)CC2)cc1Cl`, the IC50 was > 100 µM (inactive).

Take `O=C(Nc1cccc(Cl)c1)C1CCN(c2ncnc3c2nc2n3CCCCC2)CC1`: the IC50 was > 100 µM (inactive).

For `COc1cc(Cl)c(C)cc1NC(=O)C1CCN(c2ncnc3c2nc2n3CCCCC2)CC1`, the IC50 is > 100 µM (inactive).

Consider `c1nc(N2CCC(N3CCCCC3)CC2)c2nc3n(c2n1)CCCC3`, for which the IC50 was > 100 µM (inactive).

`Cc1ccc(Cl)cc1N1CCN(c2ncnc3c2nc2n3CCCC2)CC1`: the IC50 is > 100 µM (inactive).

As for `O=C(Nc1cc(F)ccc1F)C1CCN(c2ncnc3c2nc2n3CCCCC2)CC1`, the IC50 was > 100 µM (inactive).

For `Cc1ccc(NC(=O)C2CCN(c3ncnc4c3nc3n4CCCCC3)CC2)cc1F`, the IC50 was > 100 µM (inactive).

Regarding `c1ccc(CN2CCN(c3ncnc4c3nc3n4CCCC3)CC2)cc1`, the IC50 was > 100 µM (inactive).

Take `O=C(Nc1ccc(CN2CCCCC2)cc1)C1CCN(c2ncnc3c2nc2n3CCCCC2)CC1`: the IC50 was > 100 µM (inactive).

Take `Cc1c(Cl)cccc1NC(=O)C1CCN(c2ncnc3c2nc2n3CCCCC2)CC1`: the IC50 was > 100 µM (inactive).

For `Cc1cc(Cl)ccc1NC(=O)C1CCN(c2ncnc3c2nc2n3CCCCC2)CC1`, the IC50 is > 100 µM (inactive).

Consider `CCOc1ccc(CCNC(=O)CCCCCN2C(=O)c3ccccc3C2=O)cc1OCC`, for which the IC50 was > 100 µM (inactive).

As for `O=C(CCCCCN1C(=O)c2ccccc2C1=O)NCCc1ccccc1`, the IC50 is > 100 µM (inactive).

As for `Cc1ccc(NC(=O)C2CCN(c3ncnc4c3nc3n4CCCCC3)CC2)cc1C`, the IC50 was > 100 µM (inactive).

In the case of `COc1ccc(Cl)cc1NC(=O)C1CCN(c2ncnc3c2nc2n3CCCCC2)CC1`, the IC50 was > 100 µM (inactive).

In the case of `CC1CN(S(=O)(=O)c2ccc(NC(=O)CCCCCN3C(=O)c4ccccc4C3=O)cc2)CC(C)O1` (centres undefined), the IC50 is > 100 µM (inactive).

As to `Fc1ccccc1N1CCN(c2ncnc3c2nc2n3CCCC2)CC1`, the IC50 was > 100 µM (inactive).
